Laboratory results as given in US7074789B2, “Kinase inhibitors” (Amgen Inc., priority 1999, dated 2006).

Experiments:
Assay type in all cases: biochemical
[1] = target: T1, AKT (Homo sapiens, UniProt Q9Y243); assay: Kinase inhibition assay (33P transfer), AKT; details: Table 2, kinase inhibition class; read-out: AKT3-1
T1 construct: Kinases are expressed as either kinase domains or full length constructs; made in house
Summary of the method: (§1)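 Each kinase, expressed as a GST- or polyHis-tagged domain or full-length protein, phosphorylated plate-attached poly(Glu,Tyr) 4:1 or poly(Arg,Ser) 3:1 using 33P-ATP. Bound radioactivity was measured by scintillation after a 0.5% phosphoric acid wash.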

[2] = target: T2, Lck (Homo sapiens, UniProt P06239); assay: Kinase inhibition assay (33P transfer), Lck; details: Table 3; read-out: Lck-1
T2 construct: Kinases are expressed as either kinase domains or full length constructs; made in house
Summary of the method: as §1

[3] = target: T3, Kdr (Homo sapiens, UniProt P35968); assay: Kinase inhibition assay (33P transfer), Kdr; details: Table 3; read-out: KDR-1
T3 construct: Kinases are expressed as either kinase domains or full length constructs; made in house
Summary of the method: as §1

[4] = target: T4, Hck-1 (Homo sapiens, UniProt P08631); assay: Kinase inhibition assay (33P transfer), Hck; details: Table 6, Hck-1 kinase inhibition class
T4 construct: Kinases are expressed as either kinase domains or full length constructs; made in house

[5] = target: T5, Src (Homo sapiens, UniProt P12931); assay: Kinase inhibition assay (33P transfer), Src; details: Table 6, Src-1 kinase inhibition class
T5 construct: Kinases are expressed as either kinase domains or full length constructs; made in house
Summary of the method: (§2)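 Each enzyme, purified to near homogeneity by affinity chromatography, was incubated with ATP carrying 33P and a substrate polymer fixed to the plate. Unbound label was removed with dilute phosphoric acid (0.5%) before adding scintillant and counting. Potency is given as the compound level cutting label uptake by 50%.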

[6] = target: T6, Itk (Homo sapiens, UniProt Q08881); assay: Kinase inhibition assay (33P transfer), Itk; details: Table 3; read-out: Itk-1
T6 construct: Kinases are expressed as either kinase domains or full length constructs; made in house
T6 sequence (Q08881 1-620): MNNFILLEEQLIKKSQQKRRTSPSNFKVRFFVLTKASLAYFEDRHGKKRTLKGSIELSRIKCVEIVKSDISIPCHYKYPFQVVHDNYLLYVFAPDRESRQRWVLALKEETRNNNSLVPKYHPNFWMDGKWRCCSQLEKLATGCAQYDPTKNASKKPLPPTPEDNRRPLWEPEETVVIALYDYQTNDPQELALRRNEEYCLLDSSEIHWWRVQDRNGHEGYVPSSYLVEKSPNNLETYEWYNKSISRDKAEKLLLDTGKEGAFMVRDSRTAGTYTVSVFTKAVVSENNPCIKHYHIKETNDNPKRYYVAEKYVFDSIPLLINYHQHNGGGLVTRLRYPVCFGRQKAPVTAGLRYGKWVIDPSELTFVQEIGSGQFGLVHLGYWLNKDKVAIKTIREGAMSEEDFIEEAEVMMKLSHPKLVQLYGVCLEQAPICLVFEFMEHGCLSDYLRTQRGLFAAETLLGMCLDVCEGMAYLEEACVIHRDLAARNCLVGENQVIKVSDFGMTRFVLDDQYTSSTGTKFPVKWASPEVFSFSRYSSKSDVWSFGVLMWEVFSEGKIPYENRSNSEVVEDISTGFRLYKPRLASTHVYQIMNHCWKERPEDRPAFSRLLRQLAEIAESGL
Summary of the method: as §2

[7] = target: T7, PDGFRB (Homo sapiens, UniProt P09619); assay: Kinase inhibition assay (33P transfer), PDGFRB; details: read-out: PDGFRB-1
T7 construct: Kinases are expressed as either kinase domains or full length constructs; made in house

[8] = target: T8, IGFR-1 (Homo sapiens, UniProt P08069); assay: Kinase inhibition assay (33P transfer), IGFR-1; details: Table 2, kinase inhibition class
T8 construct: Kinases are expressed as either kinase domains or full length constructs; made in house

[9] = target: T9, EGFR (Homo sapiens, UniProt P00533); assay: Kinase inhibition assay (33P transfer), EGFR; details: Table 2, kinase inhibition class; read-out: EGFR-1
T9 construct: Kinases are expressed as either kinase domains or full length constructs; made in house
Summary of the method: as §2

[10] = target: T10, Flt-1 (Homo sapiens, UniProt P17948); assay: Kinase inhibition assay (33P transfer), Flt-1
T10 construct: Kinases are expressed as either kinase domains or full length constructs; made in house
Summary of the method: as §2

[11] = target: T11, Fyn (Homo sapiens, UniProt P06241); assay: Kinase inhibition assay (33P transfer), Fyn; details: read-out: Fyn-1
T11 construct: Kinases are expressed as either kinase domains or full length constructs; made in house
Summary of the method: as §2

[12] = target: T12, c-Met (Homo sapiens, UniProt P08581); assay: Kinase inhibition assay (33P transfer), c-Met; details: Table 2, kinase inhibition class; read-out: Met-1
T12 construct: Kinases are expressed as either kinase domains or full length constructs; made in house
Summary of the method: as §2

[13] = target: T13, FGFR1 (Homo sapiens, UniProt P11362); assay: Kinase inhibition assay (33P transfer), FGFR1; details: read-out: FGFR1-1
T13 construct: Kinases are expressed as either kinase domains or full length constructs; made in house

T7 sequence (P09619 33-1106, species assumed): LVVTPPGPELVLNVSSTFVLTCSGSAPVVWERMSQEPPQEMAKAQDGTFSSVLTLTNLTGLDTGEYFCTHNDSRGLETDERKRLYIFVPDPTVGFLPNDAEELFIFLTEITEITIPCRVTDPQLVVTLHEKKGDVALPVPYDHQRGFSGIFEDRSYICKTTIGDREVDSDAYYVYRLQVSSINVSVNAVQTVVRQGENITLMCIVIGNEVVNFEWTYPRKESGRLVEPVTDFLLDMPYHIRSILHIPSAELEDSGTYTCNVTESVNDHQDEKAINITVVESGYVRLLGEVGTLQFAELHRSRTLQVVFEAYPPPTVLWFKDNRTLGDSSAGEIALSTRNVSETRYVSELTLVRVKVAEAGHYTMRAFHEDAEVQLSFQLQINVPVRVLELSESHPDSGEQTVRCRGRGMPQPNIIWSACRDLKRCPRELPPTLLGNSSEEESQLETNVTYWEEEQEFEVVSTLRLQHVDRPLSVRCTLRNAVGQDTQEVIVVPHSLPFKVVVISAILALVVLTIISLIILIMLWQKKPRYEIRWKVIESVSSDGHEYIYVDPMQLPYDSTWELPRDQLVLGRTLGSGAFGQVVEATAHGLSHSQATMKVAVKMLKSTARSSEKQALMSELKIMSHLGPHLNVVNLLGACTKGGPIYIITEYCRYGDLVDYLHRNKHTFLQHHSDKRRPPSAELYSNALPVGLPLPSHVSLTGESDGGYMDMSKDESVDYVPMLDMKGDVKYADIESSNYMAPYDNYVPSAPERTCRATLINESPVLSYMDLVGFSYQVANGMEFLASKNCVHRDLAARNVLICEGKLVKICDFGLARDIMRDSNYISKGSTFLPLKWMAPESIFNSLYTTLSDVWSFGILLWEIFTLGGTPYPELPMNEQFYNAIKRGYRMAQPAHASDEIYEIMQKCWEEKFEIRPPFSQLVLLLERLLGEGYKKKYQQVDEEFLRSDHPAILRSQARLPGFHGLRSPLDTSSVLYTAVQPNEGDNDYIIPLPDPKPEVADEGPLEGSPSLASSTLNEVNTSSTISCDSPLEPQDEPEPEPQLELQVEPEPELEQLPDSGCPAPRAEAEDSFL
T10 sequence (P17948 27-1338, species assumed): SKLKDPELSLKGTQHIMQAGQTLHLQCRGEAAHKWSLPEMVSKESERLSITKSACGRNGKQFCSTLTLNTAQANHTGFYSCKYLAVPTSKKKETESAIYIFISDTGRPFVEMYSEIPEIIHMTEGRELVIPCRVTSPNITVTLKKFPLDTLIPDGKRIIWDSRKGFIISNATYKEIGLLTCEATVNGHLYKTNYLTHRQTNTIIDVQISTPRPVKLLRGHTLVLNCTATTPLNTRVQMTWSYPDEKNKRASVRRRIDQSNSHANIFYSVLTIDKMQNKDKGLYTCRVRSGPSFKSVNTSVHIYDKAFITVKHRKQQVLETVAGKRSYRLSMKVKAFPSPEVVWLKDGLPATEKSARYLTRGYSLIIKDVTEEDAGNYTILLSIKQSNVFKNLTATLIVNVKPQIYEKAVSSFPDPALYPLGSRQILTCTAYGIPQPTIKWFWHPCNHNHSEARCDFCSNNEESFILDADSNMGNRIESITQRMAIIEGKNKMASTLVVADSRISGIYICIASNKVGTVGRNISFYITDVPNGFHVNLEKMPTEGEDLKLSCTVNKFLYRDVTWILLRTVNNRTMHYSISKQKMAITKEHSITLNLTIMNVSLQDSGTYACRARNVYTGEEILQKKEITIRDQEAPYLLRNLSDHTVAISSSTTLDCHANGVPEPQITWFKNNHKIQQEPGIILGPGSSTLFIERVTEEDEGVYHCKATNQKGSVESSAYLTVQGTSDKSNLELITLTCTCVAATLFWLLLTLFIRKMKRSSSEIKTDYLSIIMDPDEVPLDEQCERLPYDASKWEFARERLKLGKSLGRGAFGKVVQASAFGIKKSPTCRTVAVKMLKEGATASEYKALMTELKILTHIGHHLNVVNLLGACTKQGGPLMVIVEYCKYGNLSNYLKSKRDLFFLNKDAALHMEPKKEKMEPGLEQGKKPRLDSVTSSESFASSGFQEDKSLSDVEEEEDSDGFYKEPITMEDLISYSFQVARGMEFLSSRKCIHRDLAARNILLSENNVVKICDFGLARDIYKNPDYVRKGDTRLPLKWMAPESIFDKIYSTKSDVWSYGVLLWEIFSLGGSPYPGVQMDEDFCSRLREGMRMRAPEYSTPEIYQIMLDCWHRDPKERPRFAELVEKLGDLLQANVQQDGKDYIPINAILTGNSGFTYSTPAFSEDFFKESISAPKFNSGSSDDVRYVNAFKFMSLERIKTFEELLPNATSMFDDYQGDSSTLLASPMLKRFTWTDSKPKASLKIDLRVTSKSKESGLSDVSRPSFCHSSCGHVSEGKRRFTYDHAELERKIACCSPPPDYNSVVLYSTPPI
T11 sequence (P06241 whole entry, species assumed, the tested form may be a part): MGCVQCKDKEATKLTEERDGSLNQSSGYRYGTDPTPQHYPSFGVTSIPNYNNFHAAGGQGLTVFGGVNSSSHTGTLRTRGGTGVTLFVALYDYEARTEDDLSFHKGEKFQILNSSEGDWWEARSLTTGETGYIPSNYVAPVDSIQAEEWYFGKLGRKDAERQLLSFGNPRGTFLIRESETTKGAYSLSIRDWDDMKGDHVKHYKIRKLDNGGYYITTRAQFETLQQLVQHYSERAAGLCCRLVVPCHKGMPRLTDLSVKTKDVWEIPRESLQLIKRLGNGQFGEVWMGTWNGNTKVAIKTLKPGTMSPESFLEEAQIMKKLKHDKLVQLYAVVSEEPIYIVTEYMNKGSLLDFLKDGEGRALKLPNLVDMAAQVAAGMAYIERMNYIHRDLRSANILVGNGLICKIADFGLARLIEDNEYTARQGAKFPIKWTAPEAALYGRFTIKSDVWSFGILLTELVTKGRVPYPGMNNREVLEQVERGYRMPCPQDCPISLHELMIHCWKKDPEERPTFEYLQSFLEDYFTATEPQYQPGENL
T9 sequence (P00533 25-1210, species assumed): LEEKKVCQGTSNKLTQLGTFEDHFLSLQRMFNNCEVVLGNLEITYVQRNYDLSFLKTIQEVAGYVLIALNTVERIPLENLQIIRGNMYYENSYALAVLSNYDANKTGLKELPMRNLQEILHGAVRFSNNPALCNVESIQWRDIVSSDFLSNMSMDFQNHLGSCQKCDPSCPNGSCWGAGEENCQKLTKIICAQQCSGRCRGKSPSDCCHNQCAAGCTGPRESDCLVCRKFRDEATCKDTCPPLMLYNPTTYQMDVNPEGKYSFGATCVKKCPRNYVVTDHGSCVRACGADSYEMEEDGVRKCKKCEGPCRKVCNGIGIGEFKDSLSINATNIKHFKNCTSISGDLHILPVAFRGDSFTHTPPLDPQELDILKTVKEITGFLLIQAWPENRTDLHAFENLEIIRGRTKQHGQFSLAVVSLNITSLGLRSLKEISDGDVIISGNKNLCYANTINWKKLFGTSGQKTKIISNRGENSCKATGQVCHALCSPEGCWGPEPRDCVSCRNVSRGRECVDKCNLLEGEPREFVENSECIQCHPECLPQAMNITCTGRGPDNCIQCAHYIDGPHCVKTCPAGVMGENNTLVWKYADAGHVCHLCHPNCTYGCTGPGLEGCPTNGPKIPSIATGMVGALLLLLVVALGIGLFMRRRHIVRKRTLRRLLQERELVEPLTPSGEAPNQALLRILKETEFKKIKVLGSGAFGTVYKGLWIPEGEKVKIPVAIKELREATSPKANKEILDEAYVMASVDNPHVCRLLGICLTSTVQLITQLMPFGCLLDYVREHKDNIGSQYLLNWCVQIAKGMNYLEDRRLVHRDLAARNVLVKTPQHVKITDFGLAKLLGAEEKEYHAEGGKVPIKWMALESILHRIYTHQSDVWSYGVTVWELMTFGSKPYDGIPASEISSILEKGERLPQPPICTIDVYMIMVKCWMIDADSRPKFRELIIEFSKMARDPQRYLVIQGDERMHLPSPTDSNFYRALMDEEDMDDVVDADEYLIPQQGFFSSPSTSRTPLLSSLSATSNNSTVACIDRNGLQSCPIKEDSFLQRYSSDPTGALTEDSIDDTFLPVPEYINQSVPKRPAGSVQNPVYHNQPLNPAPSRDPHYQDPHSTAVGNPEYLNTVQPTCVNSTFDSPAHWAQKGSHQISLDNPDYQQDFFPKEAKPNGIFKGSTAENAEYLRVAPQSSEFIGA
T1 sequence (Q9Y243 whole entry, the tested form may be a part): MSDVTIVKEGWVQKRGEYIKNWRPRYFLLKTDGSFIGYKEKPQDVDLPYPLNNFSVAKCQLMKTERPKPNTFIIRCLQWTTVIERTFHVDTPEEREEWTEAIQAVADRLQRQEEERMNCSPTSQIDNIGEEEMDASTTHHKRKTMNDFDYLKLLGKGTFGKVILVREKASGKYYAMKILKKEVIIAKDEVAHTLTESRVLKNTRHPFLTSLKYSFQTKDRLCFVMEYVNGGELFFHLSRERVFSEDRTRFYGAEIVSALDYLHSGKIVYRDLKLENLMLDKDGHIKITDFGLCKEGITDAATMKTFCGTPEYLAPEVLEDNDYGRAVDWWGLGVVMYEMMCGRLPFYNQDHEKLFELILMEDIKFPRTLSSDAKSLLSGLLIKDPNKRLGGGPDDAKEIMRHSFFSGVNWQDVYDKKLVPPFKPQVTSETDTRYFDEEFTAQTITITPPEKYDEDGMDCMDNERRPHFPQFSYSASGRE
T2 sequence (P06239 whole entry, species assumed, the tested form may be a part): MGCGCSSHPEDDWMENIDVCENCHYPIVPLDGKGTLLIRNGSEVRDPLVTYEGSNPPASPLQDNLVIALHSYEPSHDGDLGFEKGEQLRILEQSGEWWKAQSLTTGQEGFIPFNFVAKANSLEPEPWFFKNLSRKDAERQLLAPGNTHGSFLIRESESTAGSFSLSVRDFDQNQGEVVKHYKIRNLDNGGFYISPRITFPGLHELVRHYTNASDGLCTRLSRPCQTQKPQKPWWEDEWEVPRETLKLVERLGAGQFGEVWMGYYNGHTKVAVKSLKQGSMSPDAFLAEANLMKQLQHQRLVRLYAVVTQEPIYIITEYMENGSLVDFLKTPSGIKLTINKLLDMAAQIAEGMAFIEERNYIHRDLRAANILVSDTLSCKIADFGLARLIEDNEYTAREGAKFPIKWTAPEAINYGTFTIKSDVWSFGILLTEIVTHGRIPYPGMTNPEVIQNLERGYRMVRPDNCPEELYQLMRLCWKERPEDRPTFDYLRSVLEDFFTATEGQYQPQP

Row | IC50 [1] [µM] | IC50 [2] [µM] | IC50 [3] [µM] | IC50 [4] [µM] | IC50 [5] [µM] | IC50 [6] [µM] | IC50 [7] [µM] | IC50 [8] [µM] | IC50 [9] [µM] | IC50 [10] [µM] | IC50 [11] [µM] | IC50 [12] [µM] | IC50 [13] [µM] | SMILES
1 | > 11.4 | 1.01 to 6.05 | < 1.01 | > 11.4 | 1.01 to 6.05 | > 11.4 | > 11.4 | < 1.01 | 6.05 to 8.83 | < 1.01 | 1.01 to 6.05 | 8.83 to 11.4 | 1.01 to 6.05 | COc1cc(Nc2ncnc(Nc3ccc(N(C)C)cc3)n2)cc(OC)c1OC [Compound 27]
2 | > 10.1 | < 0.898 | < 0.898 | > 10.1 | < 0.898 | > 10.1 | 0.898 to 5.39 | 5.39 to 7.86 | < 0.898 | < 0.898 | < 0.898 | 7.86 to 10.1 | < 0.898 | COc1cc(Nc2ncnc(Nc3ccc(Oc4ccccc4)cc3)n2)cc(OC)c1OC [Compound 29]
3 | > 11.4 | 8.83 to 11.4 | 1.01 to 6.05 | > 11.4 | 1.01 to 6.05 | > 11.4 | 8.83 to 11.4 | < 1.01 | > 11.4 | > 11.4 | 6.05 to 8.83 | > 11.4 | 6.05 to 8.83 | COc1cc(Nc2ncnc(Nc3ccc(C(N)=O)cc3)n2)cc(OC)c1OC [Compound 33]
4 | > 11.6 | 1.03 to 6.19 | < 1.03 |  |  | > 11.6 | < 1.03 | < 1.03 | 1.03 to 6.19 | < 1.03 |  | 9.02 to 11.6 | < 1.03 | COc1cc(Nc2ncnc(Nc3ccc(Cl)cc3)n2)cc(OC)c1OC [Compound 72]
5 | > 11.9 | 1.06 to 6.36 | 1.06 to 6.36 | > 11.9 | 1.06 to 6.36 | > 11.9 |  | < 1.06 | < 1.06 |  | > 11.9 | 9.27 to 11.9 |  | C#Cc1cccc(Nc2ncnc(Nc3cc(OC)c(OC)c(OC)c3)n2)c1 [Compound 74]
6 | > 10.1 | 0.902 to 5.41 | 0.902 to 5.41 | > 10.1 | < 0.902 | > 10.1 |  | 0.902 to 5.41 | 7.89 to 10.1 |  | 0.902 to 5.41 | > 10.1 |  | COc1cc(Nc2ncnc(Nc3cc(OC)c(OC)c(OC)c3)n2)cc(OC)c1OC [Compound 76]
7 | > 10.4 | 0.925 to 5.55 | < 0.925 |  |  | > 10.4 | < 0.925 | 0.925 to 5.55 | 0.925 to 5.55 | < 0.925 |  | > 10.4 | 0.925 to 5.55 | COc1cc(Nc2ncnc(Nc3ccc(Br)cc3)n2)cc(OC)c1OC [Compound 82]
8 | > 12.6 | 1.12 to 6.72 | < 1.12 | 9.79 to 12.6 | 1.12 to 6.72 | 1.12 to 6.72 |  | 1.12 to 6.72 | 9.79 to 12.6 |  | 1.12 to 6.72 | 1.12 to 6.72 |  | COc1cc(Nc2ncnc(Nc3cc(C)[nH]n3)n2)cc(OC)c1OC [Compound 88]
9 | > 10.2 | 0.906 to 5.44 | 0.906 to 5.44 | > 10.2 | > 10.2 | > 10.2 |  | 0.906 to 5.44 | > 10.2 |  | 0.906 to 5.44 | > 10.2 |  | COc1cc(Nc2ncnc(Nc3ccc4c(c3)Cc3ccccc3-4)n2)cc(OC)c1OC [Compound 95]
10 | > 11.2 | 0.991 to 5.95 | 0.991 to 5.95 | 8.68 to 11.2 | 5.95 to 8.68 | > 11.2 | 0.991 to 5.95 |  | 0.991 to 5.95 | 8.68 to 11.2 | 8.68 to 11.2 | > 11.2 | > 11.2 | COc1cc(Nc2ncnc(Nc3ccc4ccccc4c3)n2)cc(OC)c1OC [Compound 96]
11 | > 11.1 | 0.989 to 5.93 | < 0.989 | 8.65 to 11.1 | 0.989 to 5.93 | > 11.1 | 0.989 to 5.93 |  | 0.989 to 5.93 | 0.989 to 5.93 | 0.989 to 5.93 | 8.65 to 11.1 | 0.989 to 5.93 | COc1cc(Nc2ncnc(Nc3cnc4ccccc4c3)n2)cc(OC)c1OC [Compound 99]
12 | > 10.3 | 5.47 to 7.98 | 0.912 to 5.47 | > 10.3 | 0.912 to 5.47 | > 10.3 |  | > 10.3 | > 10.3 |  | 0.912 to 5.47 | > 10.3 |  | COc1cc(Nc2ncnc(Nc3ccc(N4CCOCC4)cc3)n2)cc(OC)c1OC [Compound 101]
13 | > 12.2 | 1.09 to 6.51 | 1.09 to 6.51 | > 12.2 | > 12.2 | > 12.2 |  | > 12.2 | 6.51 to 9.5 |  | > 12.2 | > 12.2 |  | COc1cccc(-c2ncnc(Nc3cc(OC)c(OC)c(OC)c3)n2)c1 [Compound 232]
14 | > 8.53 | 4.55 to 6.63 | 0.758 to 4.55 |  |  | 4.55 to 6.63 |  | > 8.53 | > 8.53 |  |  | > 8.53 |  | COC(=O)c1cccc(Nc2nc3ccccc3n2-c2ncnc(Nc3cc(OC)c(OC)c(OC)c3)n2)c1 [Compound 383]
